Reference: patent US11306078B2, “Piperidine CXCR7 receptor modulators” (IDORSIA PHARMACEUTICALS LTD., priority 2016, dated 2022)

What follows are molecules tested against human chemokine receptor CXCR7 (Homo sapiens (Human), UniProt P25106) (assay: Tango CXCR7-bla U2OS beta-arrestin recruitment assay (beta-lactamase reporter, FRET), antagonism of CXCL12/SDF1-α). Conditions: antagonistic effect on CXCR7; Tango CXCR7-bla U2OS cells, CXCL12/SDF1-α at its EC80.
Type: cell-based
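Also: compounds preincubated 15 min before CXCL12 addition, then 22 h at 37 °C, FRET emission ratio read with CCF4-AM substrate after 2 h.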

Sequence of human chemokine receptor CXCR7 (P25106 whole entry): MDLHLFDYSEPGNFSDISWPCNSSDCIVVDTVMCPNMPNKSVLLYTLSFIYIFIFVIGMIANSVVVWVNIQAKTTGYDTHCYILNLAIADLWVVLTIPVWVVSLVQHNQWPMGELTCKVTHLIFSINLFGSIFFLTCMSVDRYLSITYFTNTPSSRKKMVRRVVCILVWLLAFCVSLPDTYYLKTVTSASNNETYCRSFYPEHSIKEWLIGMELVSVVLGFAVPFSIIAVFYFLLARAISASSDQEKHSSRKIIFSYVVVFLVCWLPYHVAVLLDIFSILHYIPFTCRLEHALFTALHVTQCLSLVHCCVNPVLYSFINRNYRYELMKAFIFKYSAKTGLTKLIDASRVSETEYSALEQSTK

IC50 | Structure (SMILES)
944 nM | COCC(C)(C)NC(=O)[C@@H]1CN(C2CCCCC2)CC[C@H]1NC(=O)c1cc(-c2c(F)cc(F)cc2F)on1 (single isomer, unassigned) [Example 1.111a, (3R*,4R*)-1-Cyclohexyl-4-{[5-(2,4,6-trifluoro-phenyl)-isoxazole-3-carbonyl]-amino}-piperidine-3-carboxylic acid (2-methoxy-1,1-dimethyl-ethyl)-amide]
114 nM | COCC(C)(C)NC(=O)[C@@H]1CN(C2CCCCC2)CC[C@H]1NC(=O)c1cc(-c2c(F)cc(F)cc2F)on1 (single isomer, unassigned) [Example 1.111b, (3R*,4R*)-1-Cyclohexyl-4-{[5-(2,4,6-trifluoro-phenyl)-isoxazole-3-carbonyl]-amino}-piperidine-3-carboxylic acid (2-methoxy-1,1-dimethyl-ethyl)-amide]
561 nM | COCC(C)(C)NC(=O)[C@@H]1CN(CC2CC2)CC[C@H]1NC(=O)c1cc(-c2c(F)cc(F)cc2F)on1 (single isomer, unassigned) [Example 1.113a, (3R*,4R*)-1-Cyclopropylmethyl-4-{[5-(2,4,6-trifluoro-phenyl)-isoxazole-3-carbonyl]-amino}-piperidine-3-carboxylic acid (2-methoxy-1,1-dimethyl-ethyl)-amide]
48 nM | COCC(C)(C)NC(=O)[C@@H]1CN(CC2CC2)CC[C@H]1NC(=O)c1cc(-c2c(F)cc(F)cc2F)on1 (single isomer, unassigned) [Example 1.113b, (3R*,4R*)-1-Cyclopropylmethyl-4-{[5-(2,4,6-trifluoro-phenyl)-isoxazole-3-carbonyl]-amino}-piperidine-3-carboxylic acid (2-methoxy-1,1-dimethyl-ethyl)-amide]
742 nM | C[C@@H](NC(=O)[C@@H]1CN(C2CCCCC2)CC[C@H]1NC(=O)c1cc(-c2c(F)cc(F)cc2F)on1)c1ccccn1 (single isomer, unassigned) [Example 1.121a, (3R*,4R*)-1-Cyclohexyl-4-{[5-(2,4,6-trifluoro-phenyl)-isoxazole-3-carbonyl]-amino}-piperidine-3-carboxylic acid ((R)-1-pyridin-2-yl-ethyl)-amide]
2 nM | C[C@@H](NC(=O)[C@@H]1CN(C2CCCCC2)CC[C@H]1NC(=O)c1cc(-c2c(F)cc(F)cc2F)on1)c1ccccn1 (single isomer, unassigned) [Example 1.121b, (3R*,4R*)-1-Cyclohexyl-4-{[5-(2,4,6-trifluoro-phenyl)-isoxazole-3-carbonyl]-amino}-piperidine-3-carboxylic acid ((R)-1-pyridin-2-yl-ethyl)-amide]
525 nM | C[C@@H](NC(=O)[C@@H]1CN(C2CCCC2)CC[C@H]1NC(=O)c1cc(-c2c(F)cc(F)cc2F)on1)c1ccccn1 (single isomer, unassigned) [Example 1.122a, (3R*,4R*)-1-Cyclopentyl-4-{[5-(2,4,6-trifluoro-phenyl)-isoxazole-3-carbonyl]-amino}-piperidine-3-carboxylic acid ((R)-1-pyridin-2-yl-ethyl)-amide]
17 nM | C[C@@H](NC(=O)[C@@H]1CN(C2CCCC2)CC[C@H]1NC(=O)c1cc(-c2c(F)cc(F)cc2F)on1)c1ccccn1 (single isomer, unassigned) [Example 1.122b, (3R*,4R*)-1-Cyclopentyl-4-{[5-(2,4,6-trifluoro-phenyl)-isoxazole-3-carbonyl]-amino}-piperidine-3-carboxylic acid ((R)-1-pyridin-2-yl-ethyl)-amide]
647 nM | C[C@@H](NC(=O)[C@@H]1CN(C2CCCCC2)CC[C@H]1NC(=O)c1cc(-c2c(F)cc(F)cc2F)on1)c1cnccn1 (single isomer, unassigned) [Example 1.129a, (3R*,4R*)-1-Cyclohexyl-4-{[5-(2,4,6-trifluoro-phenyl)-isoxazole-3-carbonyl]-amino}-piperidine-3-carboxylic acid ((R)-1-pyrazin-2-yl-ethyl)-amide]
35 nM | C[C@@H](NC(=O)[C@@H]1CN(C2CCCCC2)CC[C@H]1NC(=O)c1cc(-c2c(F)cc(F)cc2F)on1)c1cnccn1 (single isomer, unassigned) [Example 1.129b, (3R*,4R*)-1-Cyclohexyl-4-{[5-(2,4,6-trifluoro-phenyl)-isoxazole-3-carbonyl]-amino}-piperidine-3-carboxylic acid ((R)-1-pyrazin-2-yl-ethyl)-amide]
437 nM | C[C@@H](NC(=O)[C@@H]1CN(C2CCCC2)CC[C@H]1NC(=O)c1cc(-c2c(F)cc(F)cc2F)on1)C1CCC1 (single isomer, unassigned) [Example 1.138a, (3R*,4R*)-1-Cyclopentyl-4-{[5-(2,4,6-trifluoro-phenyl)-isoxazole-3-carbonyl]-amino}-piperidine-3-carboxylic acid ((R)-1-cyclobutyl-ethyl)-amide]
83 nM | C[C@@H](NC(=O)[C@@H]1CN(C2CCCC2)CC[C@H]1NC(=O)c1cc(-c2c(F)cc(F)cc2F)on1)C1CCC1 (single isomer, unassigned) [Example 1.138b, (3R*,4R*)-1-Cyclopentyl-4-{[5-(2,4,6-trifluoro-phenyl)-isoxazole-3-carbonyl]-amino}-piperidine-3-carboxylic acid ((R)-1-cyclobutyl-ethyl)-amide]
790 nM | C[C@@H](NC(=O)[C@@H]1CN(CC2CC2)CC[C@H]1NC(=O)c1cc(-c2c(F)cc(F)cc2F)on1)C1CCC1 (single isomer, unassigned) [Example 1.139a, (3R*,4R*)-1-Cyclopropylmethyl-4-{[5-(2,4,6-trifluoro-phenyl)-isoxazole-3-carbonyl]-amino}-piperidine-3-carboxylic acid ((R)-1-cyclobutyl-ethyl)-amide]
29 nM | C[C@@H](NC(=O)[C@@H]1CN(CC2CC2)CC[C@H]1NC(=O)c1cc(-c2c(F)cc(F)cc2F)on1)C1CCC1 (single isomer, unassigned) [Example 1.139b, (3R*,4R*)-1-Cyclopropylmethyl-4-{[5-(2,4,6-trifluoro-phenyl)-isoxazole-3-carbonyl]-amino}-piperidine-3-carboxylic acid ((R)-1-cyclobutyl-ethyl)-amide]

Structure (SMILES) | IC50
CN(C)C(=O)[C@@H]1CN(C2CCCCC2)CC[C@H]1NC(=O)c1cn(-c2ccc(F)cc2F)nn1 (single isomer, unassigned) [Example 1.095a, (3R,4R)-1-Cyclohexyl-4-{[1-(2,4-difluoro-phenyl)-1H-[1,2,3]triazole-4-carbonyl]-amino}-piperidine-3-carboxylic acid dimethylamide or (3S,4S)-1-Cyclohexyl-4-{[1-(2,4-difluoro-phenyl)-1H-[1,2,3]triazole-4-carbonyl]-amino}-piperidine-3-carboxylic acid dimethylamide] | 129 nM
C[C@@H](NC(=O)[C@H]1CN(C2CCCCC2)CC[C@@H]1NC(=O)c1cn(-c2ccc(F)cc2F)nn1)c1ccccn1 (single isomer, unassigned) [Example 1.117a, (3S,4S)-1-Cyclohexyl-4-{[1-(2,4-difluoro-phenyl)-1H-[1,2,3]triazole-4-carbonyl]-amino}-piperidine-3-carboxylic acid ((R)-1-pyridin-2-yl-ethyl)-amide or (3R,4R)-1-Cyclohexyl-4-{[1-(2,4-difluoro-phenyl)-1H-[1,2,3]triazole-4-carbonyl]-amino}-piperidine-3-carboxylic acid ((R)-1-pyridin-2-yl-ethyl)-amide] | 39 nM
C[C@@H](NC(=O)[C@H]1CN(C2CCCC2)CC[C@@H]1NC(=O)c1cn(-c2ccc(F)cc2F)nn1)c1ccccn1 (single isomer, unassigned) [Example 1.118a, (3S,4S)-1-Cyclopentyl-4-{[1-(2,4-difluoro-phenyl)-1H-[1,2,3]triazole-4-carbonyl]-amino}-piperidine-3-carboxylic acid ((R)-1-pyridin-2-yl-ethyl)-amide or (3R,4R)-1-Cyclopentyl-4-{[1-(2,4-difluoro-phenyl)-1H-[1,2,3]triazole-4-carbonyl]-amino}-piperidine-3-carboxylic acid ((R)-1-pyridin-2-yl-ethyl)-amide] | 75 nM
C[C@@H](NC(=O)[C@H]1CN(CC2CC2)CC[C@@H]1NC(=O)c1cc(-c2c(F)cc(F)cc2F)on1)c1ccccn1 (single isomer, unassigned) [Example 1.123a, (3S,4S)-1-Cyclopropylmethyl-4-{[5-(2,4,6-trifluoro-phenyl)-isoxazole-3-carbonyl]-amino}-piperidine-3-carboxylic acid ((R)-1-pyridin-2-yl-ethyl)-amide or (3R,4R)-1-Cyclopropylmethyl-4-{[5-(2,4,6-trifluoro-phenyl)-isoxazole-3-carbonyl]-amino}-piperidine-3-carboxylic acid ((R)-1-pyridin-2-yl-ethyl)-amide] | 4 nM
C[C@@H](NC(=O)[C@H]1CN(C2CCCCC2)CC[C@@H]1NC(=O)c1cc(-c2ccc(F)cc2F)no1)c1ccccn1 (single isomer, unassigned) [Example 1.125a, (3S,4S)-1-Cyclohexyl-4-{[3-(2,4-difluoro-phenyl)-isoxazole-5-carbonyl]-amino}-piperidine-3-carboxylic acid ((R)-1-pyridin-2-yl-ethyl)-amide or (3R,4R)-1-Cyclohexyl-4-{[3-(2,4-difluoro-phenyl)-isoxazole-5-carbonyl]-amino}-piperidine-3-carboxylic acid ((R)-1-pyridin-2-yl-ethyl)-amide] | 30 nM
C[C@@H](NC(=O)[C@H]1CN(CC2CC2)CC[C@@H]1NC(=O)c1cc(-c2ccc(F)cc2F)no1)c1ccccn1 (single isomer, unassigned) [Example 1.154a, (3S,4S)-1-Cyclopropylmethyl-4-{[3-(2,4-difluoro-phenyl)-isoxazole-5-carbonyl]-amino}-piperidine-3-carboxylic acid ((R)-1-pyridin-2-yl-ethyl)-amide or (3R,4R)-1-Cyclopropylmethyl-4-{[3-(2,4-difluoro-phenyl)-isoxazole-5-carbonyl]-amino}-piperidine-3-carboxylic acid ((R)-1-pyridin-2-yl-ethyl)-amide] | 46 nM
